# Test results: patent US6160008A, “Pharmaceutical compositions comprising S-alkylisothiouronium derivatives” (priority 1996, dated 2000)
# Entries after “also recorded” stand apart in the source; their conditions may differ.
# Experiments:
# [1] = tested on: system hemodynamic indices; test: System hemodynamic indices in narcotised cats (Table 2); format: in vivo
# Procedure: An experimental study of the S-ethylisothiouronium diethylphosphate effect on the indices of system hemodynamics were performed on 8 narcotised cats with a body mass of 2-4 kg. Urethane (30% solution intraperitoneally, 1-1.2 g/kg) was used for narcostisation. To determine the period of maximum efficiency and duration of the preparation effect, the major parameters of the blood circulation were determined before its introduction (initial data) and on the 2nd, 15th, 30th, and 60th minute after the introduction, at a dose of 5 mg/kg.
# The system hemodynamics was estimated on the basis of the following indices: arterial blood pressure (AP), heart rate (HR), minute volume of blood circulation (MVC), stroke volume of the heart (SV), total vascular peripheral resistance (PR), work of the left ventricle (Alv).
# The arterial pressure was measured in the left […] of cats by a mercury pressure gauge. To prevent blood clotting, 0.2-0.3 ml (1000-1500 units) of heparin was injected intravenously. Heart rate was calculated according to the R--R interval of electrocardiogram. Recording was performed through two-channel electrocardiograph. MVC was calculated according to Ramirez A. A. et al. (1956). SV, ARV, and PR were calculated from the data on MVC, AP, central blood volume, and HR using C. G Wiggers formular (1947). Quantitative material obtained in the experiments was subjected to statistical analysis by the Student t-test.
# [2] = tested on: system hemodynamic indices during hemorrhagic shock; test: System hemodynamic indices during hemorrhagic shock (Table 4); format: in vivo, cats
# Procedure: For the experimental model of hemorrhagic shock closely resembling acute clinical situations, acute blood loss in cats was chosen (3.2% of the body mass) which constitutes 45-47% of the blood circulation volume during 3-5 minutes. To determine maximum efficiency and effective duration, parameters of the system blood circulation were determined before blood-letting and in 30 minutes after blood-letting, as well as on the 2nd, 10th, 30th and 60th minutes after intravenous injection of the medicine.
# [3] = tested on: acute arterial hypotension, caused by the hexamethonium administration; test: Acute arterial hypotension caused by hexamethonium (Table 5); format: in vivo, cats; conditions: for AP / HF: 5 mg/kg i.v. after hexamethonium 10 mg/kg
# Procedure: The influence of S-ethylisothiouronium diethylphosphate on the background of arterial hypotension caused by a known ganglion blocker-hexamethonium has been studied in cats. Hexamethonium was injected intra- venously at a dose of 10 mg/kg. Vagus and schiatic nerve stimulation was carried out by electrical pulsator with the above-threshold rectangular pulse current having a duration of 1 msec, irritation time of 10 sec, and frequency of 20 pulses/sec (peripheral section of the vagus nerve), and frequency of 300 pulses/sec (central end of the schiatic nerve).
# [4] = 5 mg/kg i.v., 2 min after injection
# [5] = 5 mg/kg i.v., 15 min after injection
# [6] = 5 mg/kg i.v., 30 min after injection
# [7] = 5 mg/kg i.v., 60 min after injection
# [8] = 5 mg/kg i.v., 10 min after injection
structure (smiles),measurement,setting,value
CCSC(=N)N [S-ethylisothiouronium diethylphosphate],AP increase relative to the initial level,"[1]; 5 mg/kg i.v., 2nd minute",41%
same,Alv above the initial value,"[1]; 5 mg/kg i.v., 2nd minute",89%
same,MVC increase,"[1]; 5 mg/kg i.v., 2nd minute",7%
same,"PR, % of the initial level","[1]; 5 mg/kg i.v., 2nd minute",135%
same,Alv above the initial value,"[1]; 5 mg/kg i.v., 15th minute",22%
same,MVC decrease,"[1]; 5 mg/kg i.v., 15th minute",11%
same,MVC decrease,"[1]; 5 mg/kg i.v., 30th minute",22%
same,AP above the initial level,"[1]; 5 mg/kg i.v., 60th minute",11%
same,PR above the initial value,"[1]; 5 mg/kg i.v., 60th minute",58%
same,AP,[1]; [4],168 ± 9.9 mm Hg
same,Alv,[1]; [4],486.2 ± 136.8 g·cm
same,HF,[1]; [4],166 ± 17.9 per min.
same,MVC,[1]; [4],101.9 ± 6.8 mL/min
same,PR,[1]; [4],138.6 ± 10.5 10^3 . din . c . cm^-5 /kg
same,Stroke volume,[1]; [4],2.14 ± 0.45 mL
same,AP,[1]; [5],158 ± 8.1 mm Hg
same,Alv,[1]; [5],317.1 ± 59.4 g·cm
same,HF,[1]; [5],178 ± 15.4 per min.
same,MVC,[1]; [5],84.3 ± 5.7 mL/min
same,PR,[1]; [5],153.8 ± 7.1 10^3 . din . c . cm^-5 /kg
same,Stroke volume,[1]; [5],1.46 ± 0.25 mL
same,AP,[1]; [6],152 ± 8.4 mm Hg
same,Alv,[1]; [6],251.9 ± 50.3 g·cm
same,HF,[1]; [6],192 ± 11.9 per min.
same,MVC,[1]; [6],74.1 ± 5.2 mL/min
same,PR,[1]; [6],168.5 ± 13.0 10^3 . din . c . cm^-5 /kg
same,Stroke volume,[1]; [6],1.23 ± 0.21 mL
same,AP,[1]; [7],132 ± 9.3 mm Hg
same,Alv,[1]; [7],211.3 ± 56.1 g·cm
same,HF,[1]; [7],188 ± 10.4 per min.
same,MVC,[1]; [7],67.6 ± 8.4 mL/min
same,PR,[1]; [7],161.5 ± 14.1 10^3 . din . c . cm^-5 /kg
same,Stroke volume,[1]; [7],1.13 ± 0.26 mL
same,Duration of hypertensive effect,"[1]; 5 mg/kg i.v., single injection",up to 1 hour
same,Effect on system hemodynamics in words,[1]; cats,on the 30th minute it returned to the initial level
same,AP increase compared to the 30th minute after bleeding,"[2]; 5 mg/kg i.v., 2nd minute",88%
same,ALV,[2]; [4],166.6 ± 18.4 g/cm
same,AP,[2]; [4],122.3 ± 6.0 mm Hg
same,Central blood volume,[2]; [4],58.6 ± 4.1 mL
same,HF,[2]; [4],182.0 ± 15.0 per min.
same,MVC,[2]; [4],52.4 ± 6.0 mL/min/kg
same,Number of blood circulations,[2]; [4],2.9 ± 0.2 min
same,Pr,[2]; [4],202.8 ± 28.7 10^3 . din . c . cm^-3
same,Stroke volume,[2]; [4],1.0 ± 0.1 mL
same,ALV,[2]; [8],130.5 ± 15.4 g/cm
same,AP,[2]; [8],112.5 ± 7.6 mm Hg
same,Central blood volume,[2]; [8],49.2 ± 4.5 mL
same,HF,[2]; [8],186.0 ± 14.1 per min.
same,MVC,[2]; [8],46.0 ± 5.7 mL/min/kg
same,Number of blood circulations,[2]; [8],3.0 ± 0.2 min
same,Pr,[2]; [8],225.1 ± 56.6 10^3 . din . c . cm^-3
same,Stroke volume,[2]; [8],0.9 ± 0.1 mL
same,ALV,[2]; [6],75.9 ± 19.4 g/cm
same,AP,[2]; [6],87.5 ± 15.4 mm Hg
same,Central blood volume,[2]; [6],43.2 ± 4.7 mL
same,HF,[2]; [6],179.1 ± 12.4 per min.
same,MVC,[2]; [6],30.8 ± 5.5 mL/min/kg
same,Number of blood circulations,[2]; [6],2.4 ± 0.3 min
same,Pr,[2]; [6],244.7 ± 39.1 10^3 . din . c . cm^-3
same,Stroke volume,[2]; [6],0.6 ± 0.1 mL
same,ALV,[2]; [7],77.0 ± 17.0 g/cm
same,AP,[2]; [7],84.2 ± 18.9 mm Hg
same,Central blood volume,[2]; [7],45.5 ± 5.1 mL
same,HF,[2]; [7],166.8 ± 15.2 per min.
same,MVC,[2]; [7],35.7 ± 5.5 mL/min/kg
same,Number of blood circulations,[2]; [7],3.5 ± 0.2 min
same,Pr,[2]; [7],245.3 ± 62.6 10^3 . din . c . cm^-3
same,Stroke volume,[2]; [7],0.7 ± 0.1 mL
same,MVC increase,"[2]; 5 mg/kg i.v., initially",19%
same,Effect in hemorrhagic shock in words,"[2]; hemorrhagic shock, cats","the decrease in HR was noted; also recorded: SV increased only on the 2nd minute after the medicine injection; also recorded: Alv essentially increased on the 2nd and 10th minutes; also recorded: PR increased during the whole period of observation; also recorded: practically does not lose efficiency in case of metabolic acidosis; also recorded: improves system hemodynamic indices in hemorrhagic shock conditions; also recorded: the peripheral vascular resistance increases, the stroke volume and central blood volume increase, and the work of the left ventricle improves"
same,AP,[3]; 2 min,152.0 ± 4.6 mm Hg
same,HF,[3]; 2 min,120.0 ± 12.0 per min.
same,AP,[3]; 15 min,147.0 ± 7.8 mm Hg
same,HF,[3]; 15 min,105.6 ± 11.6 per min.
same,AP,[3]; 30 min,146.8 ± 4.8 mm Hg
same,HF,[3]; 30 min,109.2 ± 11.1 per min.
same,AP,[3]; 60 min,143.0 ± 7.2 mm Hg
same,HF,[3]; 60 min,108.0 ± 15.8 per min.
same,AP increase,"[3]; 5 mg/kg i.v. after hexamethonium, 2nd minute",61 mm Hg
same,Effect under ganglion blockade in words,[3]; after hexamethonium,"Respiratory rate did not change; also recorded: HR changed to the direction of bradycardia, however, those changes were not statistically significant; also recorded: ganglion blocking properties are completely retained; also recorded: quickly restores the AP level after the ganglion blocker caused hypotension and maintains it for a long time"
